In PubChem BioAssay AID2060341 (Molecular Pharmacology Branch, DTP, NCI, 2025):

System: 327498-153-R-J2-PDC multicell spheroid viability
Experiment: Anticancer human tumor 327498-153-R-J2-PDC patient-derived uterine carcinosarcoma cell line growth inhibition [IpAb]
Conditions: for IC50: curve of first compound; for viability, T/C: stronger effect = lower value
Description: Combinatorial screen of targeted agents with ipatasertib and abemaciclib in multi-cell type tumor spheroids
A high-throughput screen of multi-cell type tumor spheroids was designed to identify active combinations of targeted small molecules and ipatasertib or abemaciclib. Complex spheroids include a stromal component modeled by human endothelial cells (HUVEC) and fibroblasts modeled by human mesenchymal stem cells (MSCs). The concentration ranges selected for each drug and investigational agent were based upon clinically achievable concentrations if the clinical Cmax of the agent was known.
Compounds. The drugs and investigational agents: ipatasertib (NSC767898), abemaciclib(NSC768073), selumetinib (NSC741078), trametinib (758246), adavosertib (NSC754352), everolimus (NSC733504), sapanisertib (NSC764658), vemurafenib (NSC761431), venetoclax (NSC766270), copanlisib (NSC809693), apelisib (NSC765974), palbociblib (NSC758247), vemurafenib (NSC761431), dabrafenib (NSC764134), ravoxertinib (NSC781343), BMS-387032 (NSC767048), sotorasib (NSC818433), talazoparib (NSC767125) and afursertib (NSC778305), were obtained from the National Cancer Institute (NCI) Developmental Therapeutics Program Chemical Repository. The FDA-approved anticancer drug set is available from the NCI Developmental Therapeutics Program. […] The stock solutions were prepared in dimethyl sulfoxide (DMSO, Sigma-Aldrich, St. Louis, MO, cat. D2650) at 800-fold the tested concentration and stored at -70 degrees C prior to their use. All drugs and investigational agents were tested over a range starting from a high concentration at or near the clinical Cmax and decreasing in half-log increments. If the clinical Cmax for an agent had not been determined, the highest concentration tested was 10 microM.
NCI60 Cell Culture. NCI60 cell lines were obtained from the NCI Developmental Therapeutics Program Tumor Repository. For each lot of cells, the Repository performed Applied Biosystems AmpFLSTR Identifiler testing with PCR amplification to confirm consistency with the published Identifier STR profile for each cell line. Cells were kept in continuous culture for no more than 20 passages. The optimal seeding densities for each of the cell lines at each time point assessed were determined prior to performing the concentration response studies. Briefly, the NCI60 human tumor lines were grown as monolayers in RPMI 1640 medium supplemented with 10% FBS and 2 mmol/L L-glutamine.
An additional 9 lines were from the NCI60 cell line panel including MDA-MB-231 breast carcinoma, MDA-MB-468 breast carcinoma, MCF7 breast carcinoma, Hs578T breast carcinoma, MALME-3M melanoma, SK-MEL-2 melanoma, SK-OV-3 ovarian carcinoma, DU-145 prostate carcinoma, PC-3 prostate carcinoma, all cell lines along with major genetic alterations are listed on Table 2. Pooled donor human umbilical vein endothelial cells (HUVEC, Lonza, cat. CC-2519) and human mesenchymal stem cells (hMSC, Lonza, cat. PT-2501) were purchased from Lonza (Walkersville, MD).
PDMR cell lines were grown in complete medium (DC medium): Dulbecco's modified Eagle's medium (DMEM)/F12 supplemented with 5% fetal bovine serum (FBS), 2 mM L-glutamine, 100 U/mL penicillin and 100 µg/ml streptomycin, 0.4 µg/ml hydrocortisone, 10 ng/ml epidermal growth factor (EGF) recombinant human protein, 24 µg/mL adenine, and 0.1 mg/mL primocin. During culture from frozen stock vials, PDMR cells were cultured in the same medium containing 10 µM Y-27632 (see Table 3). The PDCs were cultured in complete DMEM/F12 media without 10 microM Y-27632 dihydrochloride for at least two passages prior to the screen. The pooled donor HUVEC and hMSC were cultured in endothelial cell growth medium 2 (PromoCell, Heidelberg, Germany, cat. C-22011) and mesenchymal stem cell growth medium 2 (PromoCell, cat. C-28009), respectively. For all experiments, HUVEC and hMSC were used at passages </=5.
[…]
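Also: spheroids exposed to agents for 7 days.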
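For viability, T/C in this document: 100% = DMSO vehicle control viability.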

`CC(C)(C)c1cnc(CSc2cnc(NC(=O)C3CCNCC3)s2)o1` + CCN1CCN(Cc2ccc(Nc3ncc(F)c(-c4cc(F)c5nc(C)n(C(C)C)c5c4)n3)nc2)CC1 was tested, and the IC50 (second compound 0.01 µM) was 142 nM, the IC50 (second compound 0.0316 µM) was 105 nM and the IC50 (second compound 0.1 µM) was 83.4 nM. The IC50 (second compound 0.316 µM) was 37.5 nM, the IC50 (second compound 1 µM) was 34.4 nM and the viability, T/C (second compound 0.01 µM, first compound 0.00949 µM) was 90%. It also gave a viability, T/C (second compound 0.01 µM, first compound 0.03 µM) of 80.7%, a viability, T/C (second compound 0.01 µM, first compound 0.0949 µM) of 75.5% and a viability, T/C (second compound 0.01 µM, first compound 0.3 µM) of 2.61%. For the same compound, the viability, T/C (second compound 0.01 µM, first compound 0.949 µM) was 0.63%, the viability, T/C (second compound 0.01 µM, first compound 3 µM) was 0.6% and the viability, T/C (second compound 0.0316 µM, first compound 0.00949 µM) was 76.8%. The viability, T/C (second compound 0.0316 µM, first compound 0.03 µM) was 68.4%, the viability, T/C (second compound 0.0316 µM, first compound 0.0949 µM) was 54.6% and the viability, T/C (second compound 0.0316 µM, first compound 0.3 µM) was 1.44%. It also gave a viability, T/C (second compound 0.0316 µM, first compound 0.949 µM) of 0.56%, a viability, T/C (second compound 0.0316 µM, first compound 3 µM) of 0.66% and a viability, T/C (second compound 0.1 µM, first compound 0.00949 µM) of 57.6%. For the same compound, the viability, T/C (second compound 0.1 µM, first compound 0.03 µM) was 67.6%, the viability, T/C (second compound 0.1 µM, first compound 0.0949 µM) was 48.4% and the viability, T/C (second compound 0.1 µM, first compound 0.3 µM) was 0.6%. It also gave a viability, T/C (second compound 0.1 µM, first compound 0.949 µM) of 0.61%, a viability, T/C (second compound 0.1 µM, first compound 3 µM) of 0.61% and a viability, T/C (second compound 0.316 µM, first compound 0.00949 µM) of 51.6%. For the same compound, the viability, T/C (second compound 0.316 µM, first compound 0.03 µM) was 54.3%, the viability, T/C (second compound 0.316 µM, first compound 0.0949 µM) was 37.6% and the viability, T/C (second compound 0.316 µM, first compound 0.3 µM) was 0.81%. It also gave a viability, T/C (second compound 0.316 µM, first compound 0.949 µM) of 0.6%, a viability, T/C (second compound 0.316 µM, first compound 3 µM) of 0.72% and a viability, T/C (second compound 1 µM, first compound 0.00949 µM) of 55.4%. For the same compound, the viability, T/C (second compound 1 µM, first compound 0.03 µM) was 50.8%, the viability, T/C (second compound 1 µM, first compound 0.0949 µM) was 29.8% and the viability, T/C (second compound 1 µM, first compound 0.3 µM) was 0.56%. The viability, T/C (second compound 1 µM, first compound 0.949 µM) was 1.62% and the viability, T/C (second compound 1 µM, first compound 3 µM) was 0.76%.
With `Cc1nc(NC(=O)N2CCCC2C(N)=O)sc1-c1ccnc(C(C)(C)C(F)(F)F)c1` (stereo not given) + CC(C)NCC(C(=O)N1CCN(c2ncnc3c2C(C)CC3O)CC1)c1ccc(Cl)cc1 the IC50 (second compound 0.1 µM) was 9910 nM, the IC50 (second compound 0.316 µM) was 4450 nM and the IC50 (second compound 1 µM) was 1230 nM. The IC50 (second compound 3.16 µM) was 49.9 nM, the IC50 (second compound 10 µM) was less than 31.6 nM and the viability, T/C (second compound 0.1 µM, first compound 0.0316 µM) was 91.1%. The viability, T/C (second compound 0.1 µM, first compound 0.1 µM) was 93.2%, the viability, T/C (second compound 0.1 µM, first compound 0.316 µM) was 83.3% and the viability, T/C (second compound 0.1 µM, first compound 1 µM) was 72.7%. It also gave a viability, T/C (second compound 0.1 µM, first compound 3.16 µM) of 63.8%, a viability, T/C (second compound 0.1 µM, first compound 10 µM) of 49.4% and a viability, T/C (second compound 0.316 µM, first compound 0.0316 µM) of 72%. For the same compound, the viability, T/C (second compound 0.316 µM, first compound 0.1 µM) was 70.5%, the viability, T/C (second compound 0.316 µM, first compound 0.316 µM) was 67.8% and the viability, T/C (second compound 0.316 µM, first compound 1 µM) was 59.2%. For the same compound, the viability, T/C (second compound 0.316 µM, first compound 3.16 µM) was 57.8%, the viability, T/C (second compound 0.316 µM, first compound 10 µM) was 38.5% and the viability, T/C (second compound 1 µM, first compound 0.0316 µM) was 56.4%. The viability, T/C (second compound 1 µM, first compound 0.1 µM) was 57.7%, the viability, T/C (second compound 1 µM, first compound 0.316 µM) was 59.2% and the viability, T/C (second compound 1 µM, first compound 1 µM) was 49.8%. For the same compound, the viability, T/C (second compound 1 µM, first compound 3.16 µM) was 42.5%, the viability, T/C (second compound 1 µM, first compound 10 µM) was 30.5% and the viability, T/C (second compound 3.16 µM, first compound 0.0316 µM) was 54.3%. The viability, T/C (second compound 3.16 µM, first compound 0.1 µM) was 44.9%, the viability, T/C (second compound 3.16 µM, first compound 0.316 µM) was 36.2% and the viability, T/C (second compound 3.16 µM, first compound 1 µM) was 34.6%. The viability, T/C (second compound 3.16 µM, first compound 3.16 µM) was 33.7%, the viability, T/C (second compound 3.16 µM, first compound 10 µM) was 21.3% and the viability, T/C (second compound 10 µM, first compound 0.0316 µM) was 38.7%. It also gave a viability, T/C (second compound 10 µM, first compound 0.1 µM) of 31.7%, a viability, T/C (second compound 10 µM, first compound 0.316 µM) of 26.6% and a viability, T/C (second compound 10 µM, first compound 1 µM) of 23.5%. It also gave a viability, T/C (second compound 10 µM, first compound 3.16 µM) of 25.5% and a viability, T/C (second compound 10 µM, first compound 10 µM) of 17.2%.
